Structures can show the parent of a compound that is named as a salt.
Molecular target: recombinant human SOS1 polypeptide (amino acids 560-1049) (Homo sapiens (Human), UniProt Q07889)
Assay: biochemical
Type: binding
Details: HTRF displacement, Cy5 labelled tracer, Morrison equation for competitive binding; read-out: Ki, Inhibition of Labeled Tracer Binding to SOS1

Sequence of recombinant human SOS1 polypeptide (amino acids 560-1049) (Q07889 560-1049): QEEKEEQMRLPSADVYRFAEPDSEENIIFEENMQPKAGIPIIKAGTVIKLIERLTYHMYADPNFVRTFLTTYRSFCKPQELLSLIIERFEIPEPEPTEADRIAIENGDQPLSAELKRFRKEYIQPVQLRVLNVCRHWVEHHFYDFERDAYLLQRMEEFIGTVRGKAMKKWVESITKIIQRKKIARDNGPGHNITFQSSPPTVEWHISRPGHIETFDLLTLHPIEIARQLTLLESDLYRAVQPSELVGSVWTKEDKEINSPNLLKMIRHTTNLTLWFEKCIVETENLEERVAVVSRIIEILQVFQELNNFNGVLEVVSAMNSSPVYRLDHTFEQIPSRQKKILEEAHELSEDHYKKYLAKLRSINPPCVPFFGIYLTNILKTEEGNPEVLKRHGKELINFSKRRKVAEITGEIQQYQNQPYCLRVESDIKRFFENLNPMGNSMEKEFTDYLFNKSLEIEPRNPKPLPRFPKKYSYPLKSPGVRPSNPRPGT

| Molecule | Ki [nM] |
| --- | --- |
| CNCc1cccc([C@@H](C)Nc2nnc(C)c3cc(OC)c(OC)cc23)c1C [Example 5-3, (R)-6,7-dimethoxy-4-methyl-N-(1-(2-methyl-3-((methylamino)methyl)phenyl)ethyl)phthalazin-1-amine] | 390 |
| CNCc1cccc([C@@H](C)Nc2nnc(C)c3ccc(N4CCOCC4)cc23)c1C [Example 6-8, (R)-4-methyl-N-(1-(2-methyl-3-((methylamino)methyl)phenyl)ethyl)-7-morpholinophthalazin-1-amine] | 39.2 |
| Cc1c(C#N)cccc1[C@@H](C)Nc1nnc(C)c2ccc(N3CCN4CCC[C@@H]4C3)cc12 [Example 10-81, 3-((R)-1-((7-((R)-hexahydropyrrolo[1,2-a]pyrazin-2(1H)-yl)-4-methylphthalazin-1-yl)amino)ethyl)-2-methylbenzonitrile] | 0.9 |
| Cc1c(C#N)cccc1[C@@H](C)Nc1nnc(C)c2ccc(N3CC4(CCCN4C)C3)cc12 [Example 10-84, (R)-2-methyl-3-(1-((4-methyl-7-(5-methyl-2,5-diazaspiro[3.4]octan-2-yl)phthalazin-1-yl)amino)ethyl)benzonitrile] | 2.01 |
| Cc1nnc(N[C@H](C)c2cccc(C(F)(F)F)c2F)c2cc(N3CCN4CCOC[C@@H]4C3)ncc12 [Example 12-63] | 0.83 |
| Cc1nnc(N[C@H](C)c2cccc(C(F)(F)F)c2F)c2cc(N3CCN(C)CC3)ncc12 [Example 12-67] | 0.36 |
| CCN1CCN(c2cc3c(N[C@H](C)c4cccc(C(F)(F)F)c4F)nnc(C)c3cn2)CC1 [Example 12-68] | 0.37 |
| Cc1c(C#N)cccc1[C@@H](C)Nc1nnc(C)c2cnc(N3CC[C@H](N(C)C)C3)cc12 [Example 12-69] | 0.93 |
| Cc1c(C#N)cccc1[C@@H](C)Nc1nnc(C)c2cnc(N3CC4(CCOC4)C3)cc12 [Example 12-71] | 4.48 |
| Cc1c(C#N)cccc1[C@@H](C)Nc1nnc(C)c2cnc(N3CCN4CCC[C@@H]4C3)cc12 [Example 12-73] | 1.67 |
| Cc1nnc(N[C@H](C)c2cccc(F)c2Cl)c2cc(N3CCN4CCOC[C@@H]4C3)ncc12 [Example 12-74] | 10.5 |
| Cc1nnc(N[C@H](C)c2cccc(F)c2Cl)c2cc(N3CC4CC(C3)O4)ncc12 [Example 12-77] | 28.5 |
| Cc1c(F)cccc1[C@@H](C)Nc1nnc(C)c2cnc(N3CC(C)(O)C3)cc12 [Example 12-81] | 29 |
| Cc1c(C#N)cccc1[C@@H](C)Nc1nnc(C)c2cnc(N3CCN4CCCC[C@@H]4C3)cc12 [Example 12-86] | 0.98 |
| Cc1c(C#N)cccc1[C@@H](C)Nc1nnc(C)c2cnc(N3CC(C)(N4CCOCC4)C3)cc12 [Example 12-87] | 3.17 |
| Cc1c(C#N)cccc1[C@@H](C)Nc1nnc(C)c2cnc(N3CC4(CCCN4C)C3)cc12 [Example 12-88] | 2.03 |
| Cc1c(C#N)cccc1[C@@H](C)Nc1nnc(C)c2cnc(N3C[C@H]4CC[C@@H]3CN4CCO)cc12 [Example 12-89] | 0.25 |
| Cc1nnc(N[C@H](C)c2cccc(F)c2F)c2cc(N3CC4CC(C3)O4)ncc12 [Example 12-98] | 19 |
| Cc1nnc(N[C@H](C)c2cccc(C(F)F)c2F)c2cc(N3C[C@H]4C[C@@H]3CO4)ncc12 [Example 12-99] | 0.93 |
| Cc1nnc(N[C@H](C)c2cccc(C(F)F)c2F)c2cc(N3CCN4CCOC[C@@H]4C3)ncc12 [Example 12-100] | 1.07 |

| Molecule | Ki [nM] |
| --- | --- |
| CCN1CCN(c2cc3c(N[C@H](C)c4cccc(C(F)F)c4F)nnc(C)c3cn2)CC1 [Example 12-102] | 0.25 |
| Cc1c(C#N)cc(F)cc1[C@@H](C)Nc1nnc(C)c2cnc(N3CC(C)(O)C3)cc12 [Example 12-107] | 35.6 |
| Cc1c(C#N)cc(F)cc1[C@@H](C)Nc1nnc(C)c2cnc(N3CC(C)(N(C)C)C3)cc12 [Example 12-108] | 22.1 |
| Cc1c([C@@H](C)Nc2nnc(C)c3cnc(N4C[C@H]5C[C@@H]4CO5)cc23)cc(F)cc1C(F)(F)F [Example 12-109] | 2.61 |
| Cc1c([C@@H](C)Nc2nnc(C)c3cnc(N4CC(C)(N(C)C)C4)cc23)cc(F)cc1C(F)(F)F [Example 12-110] | 3.54 |
| Cc1c([C@@H](C)Nc2nnc(C)c3cnc(N4CC(C)(O)C4)cc23)cc(F)cc1C(F)(F)F [Example 12-111] | 8.09 |
| Cc1c([C@@H](C)Nc2nnc(C)c3cnc(N4CCN5CCOC[C@@H]5C4)cc23)cc(F)cc1C(F)(F)F [Example 12-112] | 2.2 |
| Cc1c([C@@H](C)Nc2nnc(C)c3cnc(N4CC5CC(C4)O5)cc23)cc(F)cc1C(F)(F)F [Example 12-113] | 2.62 |
| Cc1nnc(N[C@H](C)c2cc(F)cc(C#N)c2F)c2cc(N3C[C@H]4C[C@@H]3CO4)ncc12 [Example 12-114] | 69.3 |
| Cc1nnc(N[C@H](C)c2cc(F)cc(C#N)c2F)c2cc(N3CCN4CCOC[C@@H]4C3)ncc12 [Example 12-120] | 49.8 |
| Cc1nnc(N[C@H](C)c2cc(F)cc(C#N)c2F)c2cc(N3CC4CC(C3)O4)ncc12 [Example 12-121] | 39.2 |
| Cc1nnc(N[C@H](C)c2cc(F)cc(C#N)c2F)c2cc(N3CC(C)(N(C)C)C3)ncc12 [Example 12-122] | 170 |
| Cc1nnc(N[C@H](C)c2cc(F)cc(C#N)c2F)c2cc(N3CCC(C)(N(C)C)CC3)ncc12 [Example 12-123] | 50.4 |
| Cc1c(F)cccc1[C@@H](C)Nc1nnc(C)c2cnc(N3CC4CC(C3)O4)cc12 [Example 12-126] | 14 |
| Cc1nnc(N[C@H](C)c2cccc(C#N)c2C(F)(F)F)c2cc(N3C[C@H]4C[C@@H]3CO4)ncc12 [Example 12-127] | 6.08 |
| Cc1cccc([C@@H](C)Nc2nnc(C)c3cnc(N4CC5CC(C4)O5)cc23)c1F [Example 12-134] | 7.1 |
| CNCc1nnc(N[C@H](C)c2cccc(C#N)c2C)c2cc(N3C[C@H]4C[C@@H]3CO4)ncc12 [Example 14-3, 3-((R)-1-((7-((1R,4R)-2-oxa-5-azabicyclo[2.2.1]heptan-5-yl)-4-((methylamino)methyl)pyrido[3,4-d]pyridazin-1-yl)amino)ethyl)-2-methylbenzonitrile] | 14.5 |
| Cc1nnc(N[C@H](C)c2cc(N)cc(C(F)(F)F)n2)c2cc(N3CC(C)(N(C)C)C3)ncc12 [Example 16-11, (R)-N-(1-(4-amino-6-(trifluoromethyl)pyridin-2-yl)ethyl)-7-(3-(dimethylamino)-3-methylazetidin-1-yl)-4-methylpyrido[3,4-d]pyridazin-1-amine] | 108 |
| Cc1nnc(N[C@H](C)c2cc(N)cc(C(F)(F)F)n2)c2cc(N3CCN(C)CC3)ncc12 [Example 16-12, (R)-N-(1-(4-amino-6-(trifluoromethyl)pyridin-2-yl)ethyl)-4-methyl-7-(4-methylpiperazin-1-yl)pyrido[3,4-d]pyridazin-1-amine] | 9.58 |
| Cc1c(C#N)cccc1[C@@H](C)Nc1nnc(C)c2cc(F)c(N3CCN(C)CC3)cc12 [Example 18-3, (R)-3-(1-((6-fluoro-4-methyl-7-(4-methylpiperazin-1-yl)phthalazin-1-yl)amino)ethyl)-2-methylbenzonitrile] | 1.37 |

Same assay, conditions: read-out: Ki, Inhibition of Labeled Tracer Binding to SOS1

| Molecule | Ki [nM] |
| --- | --- |
| Cc1c(C#N)cccc1[C@@H](C)Nc1nnc(C)c2ccc(N3CC4(CCOC4)C3)cc12 [Example 10-80, (R)-2-methyl-3-(1-((4-methyl-7-(6-oxa-2-azaspiro[3.4]octan-2-yl)phthalazin-1-yl)amino)ethyl)benzonitrile Hydrochloride salt] | 5.75 |
| Cc1c(C#N)cccc1[C@@H](C)Nc1nnc(C)c2ccc(N3CC(C)(N4CCOCC4)C3)cc12 [Example 10-83, (R)-2-methyl-3-(1-((4-methyl-7-(3-methyl-3-morpholinoazetidin-1-yl)phthalazin-1-yl)amino)ethyl)benzonitrile Formate salt] | 4.54 |

Tested on: pERK in MKN1 cells
Assay: cells
Type: cell-based
Details: Homo sapiens, MKN-1, pERK inhibition, In-Cell Western; MKN1 or H358 cells (Table 24 does not say which); 0.5-1 hour incubation; read-out: IC50

| Molecule | IC50 [nM] |
| --- | --- |
| Cc1c([C@@H](C)Nc2nncc3ccc(N4CC(C(=O)N(C)C)C4)cc23)cccc1C(F)(F)F [Example 1-24, (R)-N,N-dimethyl-1-(4-((1-(2-methyl-3-(trifluoromethyl)phenyl)ethyl)amino)phthalazin-6-yl)azetidine-3-carboxamide] | 25 |
| Cc1c([C@@H](C)Nc2nncc3ccc(N4CCOCC4C)cc23)cccc1C(F)(F)F (stereo partly drawn) [Example 1-27, N-((R)-1-(2-methyl-3-(trifluoromethyl)phenyl)ethyl)-7-(3-methylmorpholino)phthalazin-1-amine] | 61 |
| Cc1c([C@@H](C)Nc2nncc3ccc(N4CCCN(C)CC4)cc23)cccc1C(F)(F)F [Example 1-29, (R)-7-(4-methyl-1,4-diazepan-1-yl)-N-(1-(2-methyl-3-(trifluoromethyl)phenyl)ethyl)phthalazin-1-amine] | 71 |
| Cc1c([C@@H](C)Nc2nncc3ccc(N4CCN(C)C(=O)C4)cc23)cccc1C(F)(F)F [Example 1-30, (R)-1-methyl-4-(4-((1-(2-methyl-3-(trifluoromethyl)phenyl)ethyl)amino)phthalazin-6-yl)piperazin-2-one] | 79 |
| Cc1c([C@@H](C)Nc2nncc3ccc(N4CC5CCN(C)CC5C4)cc23)cccc1C(F)(F)F (stereo partly drawn) [Example 1-31, N-((R)-1-(2-methyl-3-(trifluoromethyl)phenyl)ethyl)-7-(5-methyloctahydro-2H-pyrrolo[3,4-c]pyridin-2-yl)phthalazin-1-amine] | 83 |
| Cc1c([C@@H](C)Nc2nncc3ccc(N4CCC5(CCCN(C)C5)C4)cc23)cccc1C(F)(F)F (stereo partly drawn) [Example 1-34, N-((R)-1-(2-methyl-3-(trifluoromethyl)phenyl)ethyl)-7-(7-methyl-2,7-diazaspiro[4.5]decan-2-yl)phthalazin-1-amine] | 119 |

Same assay, conditions: read-out: IC50

| Molecule | IC50 [nM] |
| --- | --- |
| 4-methyl-N—((R)-1-(5-(2-((methylamino)methyl(phenyl)thiophen-2-yl)ethyl)-7-(((S)-tetrahydrofuran-3-yl)oxy)phthalazin-1-amine [Example 7-1] | 79 |
